A word on the AC50: it is the midpoint of the concentration-response curve, whichever way the signal moves. As a reminder, the EC50 is the concentration that produces a half-maximal response.

The target in assay [1] is Nuclear receptor subfamily 5 group A member 2 (Homo sapiens, UniProt O00482). In kind it is functional, cell-based.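 Further: HEK293T cells transfected with LRH-1 and a StAR promoter luciferase reporter; potency for inhibitors that lower LRH-1 driven reporter light.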
The target in the next assay is Steroidogenic factor 1 (Homo sapiens, UniProt Q13285). Briefly: Counterscreen for inverse agonists of the liver receptor homolog-1 (LRH-1; NR5A2): Luminescence-based cell-based high throughput dose response assay to identify inverse agonists of the Steroidogenic Factor 1 Nuclear Receptor (SF1; NR5A1). Type of assay: functional. A general note: Counterscreens check selectivity or assay interference.
Steroidogenic factor 1, sequence (Q13285 whole entry): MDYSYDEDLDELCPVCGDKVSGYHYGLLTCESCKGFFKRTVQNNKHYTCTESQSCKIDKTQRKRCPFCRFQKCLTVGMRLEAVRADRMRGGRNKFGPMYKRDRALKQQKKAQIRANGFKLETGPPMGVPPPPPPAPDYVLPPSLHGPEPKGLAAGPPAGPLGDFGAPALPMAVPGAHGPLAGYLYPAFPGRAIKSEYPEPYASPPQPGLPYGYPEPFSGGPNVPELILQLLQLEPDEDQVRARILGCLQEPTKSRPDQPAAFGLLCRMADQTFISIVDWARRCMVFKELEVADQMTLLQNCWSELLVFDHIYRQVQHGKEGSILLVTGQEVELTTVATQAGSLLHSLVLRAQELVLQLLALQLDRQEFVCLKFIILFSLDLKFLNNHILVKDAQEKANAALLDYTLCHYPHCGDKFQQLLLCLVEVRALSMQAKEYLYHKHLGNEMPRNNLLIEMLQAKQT

Assay [2] is described as follows: nonselective StAR promoter luciferase inhibitors – cell-based, luminescence, luciferase reporter, counter-screen for LRH-1 inverse agonist project, dose response (AID 651969). In kind it is functional. (A reporter such as luciferase makes a cellular process visible.)
The subject of another assay is Cryptococcus neoformans. Briefly: PubChem AID 686997. Type of assay: functional, organism-based.
Another assay has as its system HeLa. Briefly: viability loss in HeLa cells – cell-based, ATP luminescence, cherry-pick samples, cytotoxicity control, dose response (AID 687004). In kind it is functional.
For assay [3], the target named is Disintegrin and metalloproteinase domain-containing protein 17 (Homo sapiens, UniProt P78536). Briefly: exosite inhibitors of ADAM17, dose response, biochemical (AID 743260).
Disintegrin and metalloproteinase domain-containing protein 17, sequence (P78536 whole entry, the tested form may be a part): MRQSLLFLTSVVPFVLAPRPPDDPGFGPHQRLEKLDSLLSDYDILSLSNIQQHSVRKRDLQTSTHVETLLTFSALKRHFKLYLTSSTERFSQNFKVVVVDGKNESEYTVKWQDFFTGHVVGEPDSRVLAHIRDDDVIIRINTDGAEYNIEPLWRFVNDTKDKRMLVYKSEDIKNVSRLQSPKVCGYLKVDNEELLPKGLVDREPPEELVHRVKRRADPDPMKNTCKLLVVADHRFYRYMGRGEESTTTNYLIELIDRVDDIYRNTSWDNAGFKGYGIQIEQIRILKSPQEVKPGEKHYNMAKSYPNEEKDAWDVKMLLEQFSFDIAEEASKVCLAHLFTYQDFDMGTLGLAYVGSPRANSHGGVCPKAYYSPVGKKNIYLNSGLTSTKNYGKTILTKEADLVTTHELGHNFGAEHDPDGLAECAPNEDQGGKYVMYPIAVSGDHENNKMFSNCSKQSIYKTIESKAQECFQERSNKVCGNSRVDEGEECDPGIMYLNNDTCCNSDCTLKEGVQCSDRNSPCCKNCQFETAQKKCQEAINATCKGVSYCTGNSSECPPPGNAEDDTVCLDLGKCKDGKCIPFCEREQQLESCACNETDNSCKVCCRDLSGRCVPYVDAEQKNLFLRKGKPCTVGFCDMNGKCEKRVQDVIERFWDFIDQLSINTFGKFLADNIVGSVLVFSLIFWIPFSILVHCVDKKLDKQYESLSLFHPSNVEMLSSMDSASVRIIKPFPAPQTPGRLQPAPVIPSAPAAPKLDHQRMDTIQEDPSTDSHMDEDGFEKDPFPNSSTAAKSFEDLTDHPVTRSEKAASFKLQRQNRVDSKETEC
Assay [4] can be described thus: inhibition of ADAM10 peptide cleavage – biochemical, FRET peptide substrate, recombinant human ADAM10, selectivity assay for ADAM17 exosite inhibitor project, dose response (AID 743259).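 Further: ADAM10 enzyme cleaving a FRET peptide substrate.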
A further assay deals with Paired box protein Pax-8 (Homo sapiens, UniProt Q06710). Put plainly: PAX8 transcriptional activity inhibition in RMG-I – RMG-I cells, luciferase, cherry-pick, dose response (AID 687027).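 Further: luciferase reporter driven by Pax8 target thyroperoxidase promoter measured by SteadyGlo luminescence.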 In kind it is functional, cell-based.
Paired box protein Pax-8, sequence (Q06710 whole entry): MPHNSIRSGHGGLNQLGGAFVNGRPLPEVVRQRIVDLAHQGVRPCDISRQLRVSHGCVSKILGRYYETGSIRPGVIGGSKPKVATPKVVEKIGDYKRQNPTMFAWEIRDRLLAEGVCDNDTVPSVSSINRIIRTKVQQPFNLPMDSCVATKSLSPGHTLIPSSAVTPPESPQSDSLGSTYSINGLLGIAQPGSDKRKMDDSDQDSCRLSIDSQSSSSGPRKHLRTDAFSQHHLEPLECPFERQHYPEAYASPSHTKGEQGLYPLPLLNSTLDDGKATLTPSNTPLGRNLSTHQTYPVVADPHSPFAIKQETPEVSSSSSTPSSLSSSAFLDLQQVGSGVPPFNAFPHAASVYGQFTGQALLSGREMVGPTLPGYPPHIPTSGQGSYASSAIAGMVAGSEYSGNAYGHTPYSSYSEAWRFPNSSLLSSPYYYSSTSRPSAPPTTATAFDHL
A short description of assay [5]: OVCAR-3 cell viability loss – plate reader, dry powder samples, PAX8 inhibitor project, dose response (AID 743044). In kind it is functional, cell-based.
Assay [6] in a line: IGROV1 cell killing – plate reader, dry powder samples, PAX8 inhibitor project, dose response (AID 743043). In kind it is functional, cell-based. The following applies: IGROV-1.
Assay [7] is described as follows: general cell-killing toxicity readout – plate reader, dry powder samples, cytotoxicity control for PAX8 inhibitor project, dose response (AID 743021). Type of assay: functional, cell-based.
A short description of assay [8]: P. falciparum Dd2 growth inhibitors, dose response, SYBR Green, cherry-picked samples (AID 1159567). Type of assay: functional, cell-based.
A short description of assay [9]: toxicity to human hepatoma HepG2 cells – cell-based, cherry-picked samples, cytotoxicity control, dose response (AID 1159577). In kind it is functional.
Assay [10] is described as follows: Trypanosoma cruzi growth suppression in host cells – NIH3T3 host cells, beta-gal luminescence, confirmation (AID 2044).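 Further: intracellular parasites grown in NIH/3T3 mouse fibroblasts as host cells; luminescent beta-galactosidase reporter signal from transgenic T. cruzi replicating inside host cells; inhibitors lower the luminescence signal.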 Type of assay: functional, cell-based.
Assay [11] can be described thus: NIH3T3 cell viability loss – ATP luminescence, mouse fibroblasts, counter-screen, dose response (AID 2010).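 Further: cells exposed to compound for about 90 hours before reading.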 Type of assay: functional, cell-based.
The target in a further assay is Protein Wnt-3a (Mus musculus, UniProt P27467). Put plainly: antagonism of Wnt3a pathway luciferase reporter – Wnt-LIGHT cells, luminescence, selectivity assay for Gli-SUFU antagonist project, dose response (AID 651570).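 Further: Wnt-LIGHT reporter cells stimulated with conditioned medium from Wnt3a-producing cells.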 Type of assay: functional. The following applies: read-out: IC50_Mean.
Protein Wnt-3a, sequence (P27467 whole entry): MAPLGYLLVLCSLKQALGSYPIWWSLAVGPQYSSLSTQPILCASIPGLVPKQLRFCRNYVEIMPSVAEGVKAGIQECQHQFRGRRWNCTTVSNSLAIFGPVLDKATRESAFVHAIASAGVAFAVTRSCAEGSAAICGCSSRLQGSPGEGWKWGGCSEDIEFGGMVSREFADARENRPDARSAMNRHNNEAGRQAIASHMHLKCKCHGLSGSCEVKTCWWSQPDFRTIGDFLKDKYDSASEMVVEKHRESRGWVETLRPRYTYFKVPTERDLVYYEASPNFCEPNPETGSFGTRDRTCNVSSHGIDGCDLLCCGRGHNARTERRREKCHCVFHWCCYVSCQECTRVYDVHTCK
For assay [12], the target named is T1, Small ubiquitin-related modifier 2 (Homo sapiens, UniProt P61956). Briefly: disruption of SUMO2 interaction with SIM peptide – biochemical, fluorescence polarization, uHTS hits, selectivity assay for SUMO1 interaction inhibitor project, dose response (AID 624385). Particulars: read-out: IC50_Mean. In kind it is functional. In general terms: Fluorescence polarisation rises when a labelled molecule tumbles more slowly, as on binding a larger partner.
T1 sequence (P61956 whole entry): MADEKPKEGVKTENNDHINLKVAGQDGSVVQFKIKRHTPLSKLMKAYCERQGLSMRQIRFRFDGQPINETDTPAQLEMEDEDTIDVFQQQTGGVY

The target in assay [13] is T2, Small ubiquitin-related modifier 1 (Homo sapiens, UniProt P63165). Briefly: SUMO1 protein interaction blockers, potency – biochemical, fluorescence polarization, uHTS hits, dose response (AID 624382). In kind it is functional. The following applies: read-out: IC50_Mean.
T2 sequence (P63165 whole entry): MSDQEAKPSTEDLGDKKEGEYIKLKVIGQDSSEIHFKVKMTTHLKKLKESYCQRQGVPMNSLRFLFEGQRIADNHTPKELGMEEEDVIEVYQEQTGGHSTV
For assay [14], the target named is T1, Small ubiquitin-related modifier 2. Put plainly: SUMO2 binding disruption by SUMO1 hits – biochemical, FRET, human SUMO2, uHTS hits, selectivity assay for SUMO1 interaction inhibitor project, dose response (AID 624384). Type of assay: functional. Particulars: read-out: IC50_Mean.
Assay [15] concerns the target T2, Small ubiquitin-related modifier 1. Briefly: SUMO1 protein-protein binding blockers, potency – biochemical, FRET, dose response (AID 624383). Type of assay: functional. The following applies: read-out: IC50_Mean.
Assay [16] deals with Adenosylmethionine-8-amino-7-oxononanoate aminotransferase (Mycobacterium tuberculosis, UniProt P9WQ81). Put plainly: Mycobacterium tuberculosis BioA enzyme inhibitor Measured in Biochemical System Using Plate Reader - 2163-02_Inhibitor_Dose_CherryPick_Activity. In kind it is functional, Mycobacterium tuberculosis UT205.
Adenosylmethionine-8-amino-7-oxononanoate aminotransferase, sequence (P9WQ81 whole entry): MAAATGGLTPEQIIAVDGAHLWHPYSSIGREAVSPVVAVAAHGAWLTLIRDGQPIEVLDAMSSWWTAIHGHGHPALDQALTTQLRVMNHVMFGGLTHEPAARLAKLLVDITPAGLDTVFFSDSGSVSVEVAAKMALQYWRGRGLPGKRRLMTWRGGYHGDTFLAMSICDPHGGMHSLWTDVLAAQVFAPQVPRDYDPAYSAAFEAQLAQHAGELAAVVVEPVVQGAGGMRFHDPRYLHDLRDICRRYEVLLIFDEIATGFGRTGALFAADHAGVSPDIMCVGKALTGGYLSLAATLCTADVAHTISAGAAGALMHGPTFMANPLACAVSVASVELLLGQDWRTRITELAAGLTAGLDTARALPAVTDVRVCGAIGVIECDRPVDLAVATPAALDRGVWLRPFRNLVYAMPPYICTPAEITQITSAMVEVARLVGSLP

Molecules are shown by their SMILES. Calls of active or inactive are those of the source.

Nuclear receptor subfamily 5 group A member 2, sequence (O00482 whole entry): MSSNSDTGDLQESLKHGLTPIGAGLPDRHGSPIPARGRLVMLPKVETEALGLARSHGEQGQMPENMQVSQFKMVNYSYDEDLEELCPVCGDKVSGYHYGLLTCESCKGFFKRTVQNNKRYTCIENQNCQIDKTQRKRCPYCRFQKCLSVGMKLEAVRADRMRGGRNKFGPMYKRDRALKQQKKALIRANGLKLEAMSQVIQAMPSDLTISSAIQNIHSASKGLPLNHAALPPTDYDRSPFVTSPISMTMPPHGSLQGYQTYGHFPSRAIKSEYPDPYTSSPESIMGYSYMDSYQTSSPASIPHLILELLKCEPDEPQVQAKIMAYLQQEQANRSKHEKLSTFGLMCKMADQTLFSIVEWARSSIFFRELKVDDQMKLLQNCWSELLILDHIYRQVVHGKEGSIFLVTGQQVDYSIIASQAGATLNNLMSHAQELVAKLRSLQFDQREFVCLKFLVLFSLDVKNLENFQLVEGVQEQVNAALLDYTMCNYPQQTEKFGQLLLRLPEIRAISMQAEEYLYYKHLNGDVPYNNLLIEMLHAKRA

Consider `Cc1cc(OCC(=O)Nc2nccs2)c2c(C)cc(=O)oc2c1`, for which the IC50 in assay [1] was 0.168 µM (active); at Steroidogenic factor 1, 0.112 µM (active); in assay [2], 35.9 µM (inactive).
For `COC(=O)C1=C(C)N(Cc2ccc(Br)cc2)C(=S)NC1c1ccc(F)cc1` (stereo not drawn), the AC50 with Cryptococcus neoformans was 23.2 µM (active); with Cryptococcus neoformans (Cryptococcus neoformans), 40.3 µM (active); in the assay on HeLa, > 52 µM (inactive); with HeLa (Homo sapiens) it was > 47 µM (inactive). For the same compound, the IC50 in assay [3] was > 69.6 µM (inactive); in assay [4], 52.8 µM (inactive).
For `COc1ccccc1NC(=O)N1CCCCN2[C@H](CO)[C@H](c3ccc(-c4cccc(C)c4)cc3)[C@H]2C1`, the AC50 at Paired box protein Pax-8 was 14.6 µM (active); in assay [5], 22.8 µM (active); in assay [6] it was 64.1 µM (active); in assay [7], 2.56 µM (active); in [8], 1.44 µM (active); in assay [9], 9.66 µM (active).
`C=C(C)CSc1nc2sc3c(c2c(=O)n1C1CCCCC1)CCN(C)C3`: the values for the EC50 in assay [10] and in assay [11] were 0.403 µM (active) and > 60 µM (not active), respectively. Besides, the IC50 at Protein Wnt-3a was 13.5 µM (active).
Consider `COc1ccc(C=NNc2ccc(S(=O)(=O)Nc3ccccc3C(=O)O)cc2[N+](=O)[O-])c(OC)c1`, for which the IC50 in assay [12] was 3.82 µM (active); in assay [13], 5.26 µM (active); in assay [14], 6.34 µM (active); in assay [15], 50.9 µM (inactive).
For the compound `CCNC(=O)[C@@H]1[C@@H](CO)[C@@H]2Cn3c(ccc(-c4cccnc4)c3=O)[C@@H]2N1Cc1ccc2c(c1)OCO2`, the concentration at half-maximal activity (AC50) in assay [16] is 9.24 µM (active).

Values taken from ChEMBL document CHEMBL1201862, “PubChem BioAssay data set” (2004).
